Results on 31 compounds are retold here after patent US7642269B2, “Pyrrolo[3,2-B]pyridine derivatives and processes for the preparation thereof” (Yuhan Corporation, priority 2005, dated 2010).

Structures can show the parent of a compound that is named as a salt.

T1 sequence (P19156 2-1034 limits assumed): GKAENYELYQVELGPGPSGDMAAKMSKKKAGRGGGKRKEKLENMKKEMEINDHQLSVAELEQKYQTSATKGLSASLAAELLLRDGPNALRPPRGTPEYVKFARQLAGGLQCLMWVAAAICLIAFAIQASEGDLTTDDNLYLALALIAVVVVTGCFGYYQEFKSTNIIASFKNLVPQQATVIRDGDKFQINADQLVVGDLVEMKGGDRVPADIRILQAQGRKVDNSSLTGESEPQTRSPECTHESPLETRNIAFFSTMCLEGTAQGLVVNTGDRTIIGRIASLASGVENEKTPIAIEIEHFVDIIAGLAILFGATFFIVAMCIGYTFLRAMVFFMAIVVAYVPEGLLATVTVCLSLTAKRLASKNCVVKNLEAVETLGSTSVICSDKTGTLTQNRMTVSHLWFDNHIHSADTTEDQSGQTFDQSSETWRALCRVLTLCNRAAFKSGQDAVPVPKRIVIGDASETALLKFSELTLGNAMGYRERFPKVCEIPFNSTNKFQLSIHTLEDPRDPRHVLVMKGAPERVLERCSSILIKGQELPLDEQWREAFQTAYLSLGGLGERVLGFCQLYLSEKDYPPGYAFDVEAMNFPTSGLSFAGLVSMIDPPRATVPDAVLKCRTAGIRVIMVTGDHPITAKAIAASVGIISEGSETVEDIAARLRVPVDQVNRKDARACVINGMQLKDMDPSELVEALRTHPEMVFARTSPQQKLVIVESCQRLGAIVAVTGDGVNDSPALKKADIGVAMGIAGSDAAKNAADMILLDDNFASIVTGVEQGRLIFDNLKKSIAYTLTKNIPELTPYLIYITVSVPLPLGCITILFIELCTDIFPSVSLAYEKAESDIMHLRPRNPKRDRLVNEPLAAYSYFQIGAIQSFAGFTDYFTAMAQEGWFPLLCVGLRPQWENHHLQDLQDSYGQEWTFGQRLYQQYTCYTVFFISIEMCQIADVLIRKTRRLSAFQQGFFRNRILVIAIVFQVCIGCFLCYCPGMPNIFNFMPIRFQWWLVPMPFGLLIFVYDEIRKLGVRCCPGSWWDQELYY
T1 sequence (P18434 whole entry partner): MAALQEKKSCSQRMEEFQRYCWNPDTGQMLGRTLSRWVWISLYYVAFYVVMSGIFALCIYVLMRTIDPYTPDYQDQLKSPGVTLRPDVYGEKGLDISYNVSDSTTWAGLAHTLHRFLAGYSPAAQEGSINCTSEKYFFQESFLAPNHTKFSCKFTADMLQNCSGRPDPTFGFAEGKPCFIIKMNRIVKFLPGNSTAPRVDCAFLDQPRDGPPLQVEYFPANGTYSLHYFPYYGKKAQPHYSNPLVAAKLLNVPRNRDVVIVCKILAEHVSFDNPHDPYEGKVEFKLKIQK

The experiment addresses T1, H^+/K^+-ATPase (Sus scrofa, UniProt P19156).
T1 construct: used as an enzyme source of the in vitro enzyme reaction assay of proton pump; from tissue; host or cells: hog gastric fundic mucosa (membrane vesicles, lyophilized)
Nature of the experiment: Inhibitory effects on proton pump (H^+/K^+-ATPase) activity, hog gastric vesicles. In kind it is biochemical. The conditions noted are these: K^+ stimulated H^+/K^+-ATPase activity, hog gastric vesicle, Pi measured at 620 nm. How it is done:
Preparation of Gastric Proton Pump Vesicles
The hog fundic regions containing parietal and peptic cells were scraped with slide-glass. The collected cells were suspended in 10 ml of 0.25M sucrose buffer and homogenized using a tight-fitting Teflon-glass homogenizer. The homogenate was centrifuged for 35 min at 8,000 rpm and the pellet was discarded. The supernatant was further centrifuged for 75 min at 25,000 rpm. The resulting pellets were re-suspended in the sucrose buffer (10 ml), and then the suspension was laid onto discontinuous density gradients consisting of 0.25M sucrose buffer and isolation medium containing 9% Ficoll (w/w). After being centrifuged for 3 hours and 15 minutes at 100,000×g, the material at the interface of sucrose buffer and Ficoll solution was collected and then centrifuged for 40 minutes at 100,000×g. The resulting pellets were re-suspended in 1 ml of 5 mM Hepes/Tris buffer (pH 6.1). This material was lyophilized and stored at −70° C. and used as an enzyme source of the in vitro enzyme reaction assay of proton pump.
1-2. Measurement of Inhibitory Effects on Proton Pump (H+/K+-ATPase) activity
The inhibitory effects of the compounds of the present invention against proton pump activity were evaluated in 96-well plate. In this assay, the K^+ specific H^+/K^+-ATPase activity was calculated based on the difference between the activity of H^+/K^+-ATPase activity with K^+ and without K^+ ion. In 96-well plate, 1% dimethylsulfoxide (DMSO) in buffer was added to negative and positive control groups and the diluted compounds of the present invention in buffer were added to test group. All assays were performed in 100 μl reaction volume at room temperature, and the hog gastric vesicle was kept in ice before use. At the beginning of the reaction, 10 μl of reaction buffer containing 1% DMSO was added to the negative and positive control groups and to each concentration of compounds in the test group. Then lyophilized vesicle in 5 mM Pipes/Tris buffer (pH 6.1) was pre-incubated in the presence of various concentrations of test compounds. After a 5 minute incubation, negative and positive buffers were respectively added to the previous reaction mixture. As the substrate, ATP was added to the reaction buffer, and incubated for 30 minutes at 37° C. Enzymatic activity was stopped by the addition of colorimetric reagent (2× malachite green, 1× ammonium molybdate, 1× polyvinyl alcohol, 2× H2O) and the amount of mono phosphate (Pi) in the reaction was measured at 620 nm using the micro plate reader (Genios Pro, TECAN). The difference between the Pi production with K^+ and without K^+ is taken as K^+ stimulated H^+/K^+-ATPase activity.
On to `COCCn1c(C)c(C)c2nccc(OCc3cccc(C)c3)c21` [Example 157, 1-(2-methoxyethyl)-2,3-dimethyl-7-(3-methylbenzyloxy)-1H-pyrrolo[3,2-b]pyridine hydrochloride], for which the IC50 is 570 nM.
Turning to `Cc1cccc(Cn2c(C)c(C)c3nccc(OCc4ccc(Cl)cc4)c32)c1` [Example 95, 7-(4-chlorobenzyloxy)-1-(3-methylbenzyl)-2,3-dimethyl-1H-pyrrolo[3,2-b]pyridine hydrochloride], the IC50 was determined as 520 nM.
On to `CCn1c(C)c(C)c2nccc(OCc3ccc(Cl)cc3Cl)c21` [Example 137, 7-(2,4-dichlorobenzyloxy)-1-ethyl-2,3-dimethyl-1H-pyrrolo[3,2-b]pyridine hydrochloride], for which the IC50 is 60 nM.
On to `Cc1c(C)n(Cc2cccc(F)c2)c2c(OCc3ccc(Cl)cc3)ccnc12` [Example 93, 7-(4-chlorobenzyloxy)-1-(3-fluorobenzyl)-2,3-dimethyl-1H-pyrrolo[3,2-b]pyridine hydrochloride], for which the concentration for half-maximal inhibition (IC50) was 50 nM.
With `COCCn1c(C)c(C)c2nccc(OCc3ccc(F)cc3)c21` [Example 128, 7-(4-fluorobenzyloxy)-1-(2-methoxyethyl)-2,3-dimethyl-1H-pyrrolo[3,2-b]pyridine maleate] the figure was 50 nM; with `COCCn1c(C)c(C)c2nccc(OCc3ccc(F)cc3)c21` [Example 125, 7-(4-fluorobenzyloxy)-1-(2-methoxyethyl)-2,3-dimethyl-1H-pyrrolo[3,2-b]pyridine p-toluenesulfonate], 50 nM; with `CC(=O)OCCn1c(C)c(C)c2nccc(OCc3ccc(Cl)cc3)c21` [Example 85, 1-(2-acetoxyethyl)-7-(4-chlorobenzyloxy)-2,3-dimethyl-1H-pyrrolo[3,2-b]pyridine hydrochloride], 170 nM.
In turn, `Cc1c(C)n(CC(C)C)c2c(OCc3ccc(Br)cc3)ccnc12` [Example 228, 7-(4-bromobenzyloxy)-1-isobutyl-2,3-dimethyl-1H-pyrrolo[3,2-b]pyridine hydrochloride] displayed an IC50 of 30 nM.
The compound `Cc1c(C)n(CC2CC2)c2c(OCc3cc(F)cc(F)c3)ccnc12` [Example 180, 1-cyclopropylmethyl-7-(3,5-difluorobenzyloxy)-2,3-dimethyl-1H-pyrrolo[3,2-b]pyridine hydrochloride] gave an IC50 of 830 nM.
Turning to `CCCn1c(C)c(C)c2nccc(NCc3ccc(F)cc3)c21` [Example 260, N-(2,3-dimethyl-1-propyl-1H-pyrrolo[3,2-b]pyridin-7-yl)-4-fluorobenzylamine hydrochloride], the IC50 amounted to 1210 nM.
For the compound `Cc1c(C)n(CC2CCC2)c2c(OCc3cc(F)cc(F)c3)ccnc12` [Example 179, 1-cyclobutylmethyl-7-(3,5-difluorobenzyloxy)-2,3-dimethyl-1H-pyrrolo[3,2-b]pyridine hydrochloride], half-maximal inhibition (IC50) was put at 570 nM.
As to `COCCn1c(C)c(C)c2nccc(OCc3cc(F)cc(F)c3)c21` [Example 181, 7-(3,5-difluorobenzyloxy)-1-(2-methoxyethyl)-2,3-dimethyl-1H-pyrrolo[3,2-b]pyridine hydrochloride], it took 4710 nM to reach half-maximal inhibition (IC50).
Compound `COC(=O)Cn1c(C)c(C)c2nccc(OCc3ccc(Cl)cc3)c21` [Example 83, [7-(4-chlorobenzyloxy)-2,3-dimethyl-pyrrolo[3,2-b]pyridin-1-yl]acetic acid methyl ester hydrochloride] gave an IC50 of 3820 nM.
Compound `Cc1ccc(C)c(Cn2c(C)c(C)c3nccc(OCc4ccc(Cl)cc4)c32)c1` [Example 82, 7-(4-chlorobenzyloxy)-1-(2,5-dimethylbenzyl)-2,3-dimethyl-1H-pyrrolo[3,2-b]pyridine hydrochloride] had an IC50 of 4700 nM.
In the case of `COCCn1c(C)c(C)c2nccc(OCc3ccc(F)cc3)c21` [Example 129, 7-(4-fluorobenzyloxy)-1-(2-methoxyethyl)-2,3-dimethyl-1H-pyrrolo[3,2-b]pyridine phosphate] it was 40 nM; in that of `Cc1c(C)n(Cc2ccccc2)c2c(OCc3ccc4c(c3)OCO4)ccnc12` [Example 115, 7-(benzo[1,3]dioxol-5-ylmethoxy)-1-benzyl-2,3-dimethyl-1H-pyrrolo[3,2-b]pyridine hydrochloride], 130 nM.
As to `COc1cccc(Cn2c(C)c(C)c3nccc(N4CCc5ccccc5C4)c32)c1` [Example 8, 1-(3-methoxybenzyl)-7-(1,2,3,4-tetrahydroisoquinolin-2-yl)-2,3-dimethyl-1H-pyrrolo[3,2-b]pyridine hydrochloride], the half-maximal inhibitory concentration (IC50) is 440 nM.
As for `Cc1ccc(Cn2c(C)c(C)c3nccc(OCc4ccc(C(F)(F)F)cc4)c32)cc1` [Example 200, 2,3-dimethyl-1-(4-methylbenzyl)-7-(4-trifluoromethylbenzyloxy)-1H-pyrrolo[3,2-b]pyridine hydrochloride], the midpoint of inhibition, the IC50, lay at 600 nM.
On to `C=COCCn1c(C)c(C)c2nccc(OCc3ccc(F)cc3)c21` [Example 38, 7-(4-fluorobenzyloxy)-2,3-dimethyl-1-(2-vinyloxyethyl)-1H-pyrrolo[3,2-b]pyridine hydrochloride], for which the IC50 was 1310 nM.
With `Cc1nc2c(C)c(C)n(Cc3ccccc3)c2c(NCc2ccc(F)cc2)c1C` [Example 268, N-(1-benzyl-2,3,5,6-tetramethyl-1H-pyrrolo[3,2-b]pyridin-7-yl)-4-fluorobenzylamine hydrochloride] the figure was 1250 nM.
The compound `Cc1ccc(Cn2c(C)c(C)c3nccc(OCc4cc(F)cc(F)c4)c32)cc1` [Example 196, 7-(3,5-difluorobenzyloxy)-1-(4-methylbenzyl)-2,3-dimethyl-1H-pyrrolo[3,2-b]pyridine hydrochloride] gave a half-maximal inhibitory concentration (IC50) of 380 nM.
The compound `Cc1c(C)n(Cc2ccccc2F)c2c(N3CCc4ccccc4C3)ccnc12` [Example 9, 1-(2-fluorobenzyl)-7-(1,2,3,4-tetrahydroisoquinolin-2-yl)-2,3-dimethyl-1H-pyrrolo[3,2-b]pyridine hydrochloride] registered an IC50 of 330 nM.
In the case of `Cc1c(C)n(Cc2ccccc2F)c2c(OCc3ccc(Cl)cc3)ccnc12` [Example 89, 7-(4-chlorobenzyloxy)-1-(2-fluorobenzyl)-2,3-dimethyl-1H-pyrrolo[3,2-b]pyridine hydrochloride] it was 340 nM; in that of `CCOc1ccccc1COc1ccnc2c(C)c(C)n(CCOC)c12` [Example 162, 7-(2-ethoxybenzyloxy)-1-(2-methoxyethyl)-2,3-dimethyl-1H-pyrrolo[3,2-b]pyridine hydrochloride], 1150 nM; in that of `Cc1c(C)n(Cc2ccc(Cl)cc2)c2c(OCc3ccc(Cl)cc3)ccnc12` [Example 88, 7-(4-chlorobenzyloxy)-1-(4-chlorobenzyl)-2,3-dimethyl-1H-pyrrolo[3,2-b]pyridine hydrochloride], 670 nM.
With `COCCn1c(C)c(C)c2nccc(OCc3ccc(F)cc3)c21` [Example 133, 7-(4-fluorobenzyloxy)-1-(2-methoxyethyl)-2,3-dimethyl-1H-pyrrolo[3,2-b]pyridine hydrobromide] the figure was 60 nM.
Take `COC(=O)CCn1c(C)c(C)c2nccc(OCc3ccc(F)cc3)c21` [Example 57, 1-[2-(methoxycarbonyl)ethyl]-7-(4-fluorobenzyloxy)-2,3-dimethyl-1H-pyrrolo[3,2-b]pyridine hydrochloride]: the IC50 came to 270 nM.
In turn, `Cc1c(C)n(Cc2ccc(C(C)(C)C)cc2)c2c(OCc3ccc(Cl)cc3)ccnc12` [Example 79, 1-(4-tert-butylbenzyl)-7-(4-chlorobenzyloxy)-2,3-dimethyl-1H-pyrrolo[3,2-b]pyridine hydrochloride] yielded an IC50 of 1590 nM.
In turn, `COCCn1c(C)c(C)c2nccc(NCc3ccc(F)cc3)c21` [Example 256, N-[1-(2-methoxyethyl)-2,3-dimethyl-1H-pyrrolo[3,2-b]pyridin-7-yl]-4-fluorobenzylamine hydrochloride] registered an IC50 of 2080 nM.
The compound `COCCn1c(C)c(C)c2nccc(OCc3ccc4c(c3)OCO4)c21` [Example 99, 7-(benzo[1,3]dioxol-5-ylmethoxy)-1-(2-methoxyethyl)-2,3-dimethyl-1H-pyrrolo[3,2-b]pyridine hydrochloride] had an IC50 of 630 nM.
In the case of `Cc1c(C)n(Cc2ccc(F)cc2)c2c(OCc3ccc(Cl)cc3)ccnc12` [Example 91, 7-(4-chlorobenzyloxy)-1-(4-fluorobenzyl)-2,3-dimethyl-1H-pyrrolo[3,2-b]pyridine hydrochloride] it was 460 nM.

The term IC50 denotes the midpoint of a concentration-inhibition curve. A low value points to greater potency.
